The values below are quoted from earlier work in PMC10572662 (International Journal of Molecular Sciences, 2023).

A value given as a limit tells only on which side of the number the result lay.

On the set-up of the data set: method as in PMID 17601630. As to conditions: native βCD and commercial βCD derivatives.
Regarding O-methyl-βCD, the water solubility is reported as more than 0.5 g/mL.
For the substance sulfobutylether-βCD, the water solubility was more than 0.5 g/mL.
In the case of 2-hydroxypropyl-βCD, the water solubility is 0.6 g/mL.
